US6552188B2, “Unsymmetrical cyclic diamine compound” (Kowa Co., Ltd., priority 2001, dated 2003)
Where two headings read alike, the source gives them in different places.

Tested on: adhesion of U937 cells to human umbilical venous endothelial cells (HUVEC)
Assay: Inhibitory effect on cell adhesion (fluorescence-labeled U937 adhered to IL-1β- or TNFα-stimulated HUVEC)
Type: cell-based
Conditions: compound at 1 μM
Protocol: (Inhibitory Effect on Cell Adhesion)
This test was conducted by reference to the method of Ross et al. (J. Biol. Chem., 267, 8537-8543 (1992)). More specifically, after human umbilical venous endothelial cells (HUVEC) were cultured on a 48-well plate to confluent growth, IL-1β or TNFα was added thereto. Upon elapsed time of 5 hours after the addition, U937, which is a human monocytic/histocytic cell fluorescence-labeled with PKH2 (product of Dainippon Pharmaceutical Co., Ltd.), was added in a proportion of 1×10^6 cells per well. After the plate was left at rest at room temperature for 1 hour, unadhered U937 was washed out and lysed in 1% Triton X-100 to measure a remaining fluorescence intensity (excitation wavelength: 480 nm; measuring wavelength: 530 nm). HUVEC and U937 were cultured in EGM-2 (product of Sanko Junyaku K.K.) and 10% FCS-containing RPMI1640, respectively. Each test agent was added to HUVEC upon the addition of IL-1β or TNFα and to U937 24 hours prior to the cell adhesion test. The inhibitory activity was calculated out according to the equation [100−(C−B)/(A−B)×100(%)], wherein A is the number of U937 cells adhered to HUVEC stimulated by IL-1β or TNFα when no test agent was added, B is the number of U937 cells adhered to HUVEC not stimulated by IL-1β or TNFα when no test agent was added, and C is the number of U937 cells adhered to HUVEC stimulated by IL-1β or TNFα when the test agent was added. As control compounds, Test Compound 1 described in Japanese Patent Application Laid-Open No. 9-143075 and dilazep described in Japanese Patent Application Laid-Open No. 11-92382 were simultaneously evaluated.

[1] = U937 adhesion to HUVEC stimulated by IL-1β, read-out: Percent inhibition (%) Stimulation by IL-1β
[2] = U937 adhesion to HUVEC stimulated by TNFα, read-out: Percent inhibition (%) Stimulation by TNFα

COc1cc(C(=O)OCCCN2CCCN(CCCOC(=O)c3cc(OC)c(OC)c(OC)c3)CC2)cc(OC)c1OC [Dilazep, dilazep, reference compound]
inhibition at 1 µM [1]: 0% | inhibition at 1 µM [2]: 12%

COc1cc(-c2cc(CN3CCN(CCC/C=C/c4ccc(F)cc4)CC3)ccn2)cc(OC)c1OC [Example 42, N-[(E)-5-(4-fluorophenyl)-4-pentenyl]-N′-[[2-(3,4,5-trimethoxyphenyl)pyridin-4-yl]methyl]piperazine difumarate]
inhibition at 1 µM [1]: 54% | inhibition at 1 µM [2]: 56%

COc1cc(-c2cc(CN3CCN(Cc4ccnc(-c5ccccc5)c4)CC3)ccn2)cc(OC)c1OC [Example 21, N-[(2-phenylpyridin-4-yl)methyl]-N′-[[2-(3,4,5-trimethoxyphenyl)pyridin-4-yl]methyl]piperazine difumarate]
inhibition at 1 µM [1]: 44% | inhibition at 1 µM [2]: 60%

COc1cc(/C=C/CCCN2CCN(Cc3ccnc(-c4cc(OC)c(OC)c(OC)c4)c3)CC2)cc(OC)c1OC [Example 40, N-[(E)-5-(3,4,5-trimethoxyphenyl)-4-pentenyl-]-N′-[[2-(3,4,5-trimethoxyphenyl)pyridin-4-yl]methyl]piperazine difumarate]
inhibition at 1 µM [1]: 44% | inhibition at 1 µM [2]: 55%

COc1cc(-c2cc(CN3CCN(Cc4ccc5c(OC)c(OC)c(OC)cc5c4)CC3)ccn2)cc(OC)c1OC [Example 38, N-[(5,6,7-trimethoxynaphthalen-2-yl)methyl]-N′-[[2-(3,4,5-trimethoxyphenyl)pyridin-4-yl]methyl]-piperazine dimaleate]
inhibition at 1 µM [1]: 59% | inhibition at 1 µM [2]: 76%

COc1cc(/C=C/CCCN2CCCN(Cc3ccnc(-c4cc(OC)c(OC)c(OC)c4)c3)CC2)cc(OC)c1OC [Example 41, N-[(E)-5-(3,4,5-trimethoxyphenyl)-4-pentenyl]-N′-[[2-(3,4,5-trimethoxyphenyl)pyridin-4-yl]methyl]homopiperazine difumarate]
inhibition at 1 µM [1]: 56% | inhibition at 1 µM [2]: 67%

COc1ccc(-c2cc(CN3CCN(Cc4ccnc(-c5cc(OC)c(OC)c(OC)c5)c4)CC3)ccn2)cc1 [Example 25, N-[[2-(4-methoxyphenyl)pyridin-4-yl]methyl]-N′-[[2-(3,4,5-trimethoxyphenyl)pyridin-4-yl]methyl]-piperazine difumarate]
inhibition at 1 µM [1]: 78% | inhibition at 1 µM [2]: 70%

COc1cc(-c2cccc(C(=O)N3CCN(Cc4ccnc(-c5cc(OC)c(OC)c(OC)c5)c4)CC3)c2)cc(OC)c1OC [Example 56, N-[3-(3,4,5-trimethoxyphenyl)benzoyl]-N′-[[2-(3,4,5-trimethoxyphenyl)pyridin-4-yl]methyl]piperazine]
inhibition at 1 µM [1]: 76% | inhibition at 1 µM [2]: 52%

COc1cc(-c2cccc(CN3CCCN(Cc4ccnc(-c5cc(OC)c(OC)c(OC)c5)c4)CC3)c2)cc(OC)c1OC [Example 19, N-[3-(3,4,5-trimethoxyphenyl)benzyl]-N′-[[2-(3,4,5-trimethoxyphenyl)pyridin-4-yl]methyl]homopiperazine difumarate]
inhibition at 1 µM [1]: 33% | inhibition at 1 µM [2]: 58%

COc1cc(-c2cccc(CN3CCN(Cc4ccnc(-c5cc(OC)c(OC)c(OC)c5)c4)CC3)c2)cc(OC)c1OC [Example 18, N-[3-(3,4,5-trimethoxyphenyl)benzyl]-N′-[[2-(3,4,5-trimethoxyphenyl)pyridin-4-yl]methyl]piperazine difumarate]
inhibition at 1 µM [1]: 37% | inhibition at 1 µM [2]: 54%

COc1ccc(-c2cc(CN3CCN(Cc4ccnc(-c5cc(OC)c(OC)c(OC)c5)c4)CC3)ccn2)cc1OC [Example 26, N-[[2-(3,4-dimethoxyphenyl)pyridin-4-yl]methyl]-N′-[[2-(3,4,5-trimethoxyphenyl)pyridin-4-yl]methyl]piperazine difumarate]
inhibition at 1 µM [1]: 75% | inhibition at 1 µM [2]: 69%

COc1cc(-c2cc(CN3CCN(CCc4ccc5c(OC)c(OC)c(OC)cc5c4)CC3)ccn2)cc(OC)c1OC [Example 37, N-[2-(5,6,7-trimethoxynaphthalen-2-yl)ethyl]-N′-[[2-(3,4,5-trimethoxyphenyl)pyridin-4-yl]methyl]-piperazine dimaleate]
inhibition at 1 µM [1]: 68% | inhibition at 1 µM [2]: 56%
